# Columns and labels:
# [1] = tested on: isolated rat liver mitochondria; experiment: Protection of isolated liver mitochondria against toxic bile acids
# Source text: (§1) Beta carotene and other carotenoids also function as antioxidants in tissues with low oxygen content (such as the liver) and the present inventor has shown beta carotene to have a protective role in hepatic mitochondria that prevents processes that generate oxygen free radicals (unpublished data). […] (Sokol et al., Hepatology 2001;34(2):277A, incorporated herein by reference in its entirety).
# [2] = tested on: isolated human liver mitochondria; experiment: as above
# Source text: as §1
# fat-laden hepatocytes = experiment: Protection of fat-laden liver cells exposed to bile acids; type: cell-based, rat; conditions: fat-laden liver cells exposed to relatively low concentrations of bile acids
# Source text: The antioxidants in this mixture were chosen for the following scientific reasons. […] Briefly, fat-laden hepatocytes were isolated from the Zucker rat model of hepatic steatosis and from lean littermate Zucker rats. […] Without being bound by theory, the present inventor believes that the fatty liver is more prone to hepatocyte necrosis and thus is at risk for severe injury from minor and major insults. […] Studies from the present inventor's laboratory have shown that the effect of vitamin E is probably mediated through reduction of free radical production from mitochondria (Yerushalmi et al., Hepatology 2001; 33:616-26, incorporated herein by reference in its entirety).
# children with NASH = conditions: oral vitamin E 400 to 1200 IU per day, during therapy; cited from earlier work
# [3] = tested on: fat-laden hepatocytes from obese Zucker (fa/fa) rats; experiment: Cell necrosis (%LDH release) of isolated hepatocytes exposed to GCDC; type: cell-based, rat; conditions: fat-laden cells, 100 μM GCDC × 3 hours
# Experimental: (§2) Briefly, 8-week-old obese Zucker (fa/fa) rats (Zucker rat model of hepatic steatosis) and lean (Fa/?) litter-mates were sacrificed. Liver blood tests and liver histology were obtained, and hepatocytes isolated by the recirculating collagenase perfusion technique. Initial trypan blue exclusion exceeded 94%. Cells were incubated in suspension with glycochenodeoxycholic acid (GCDC) (0,-1000 μM) in Krebs-Ringer-HEPES for 4 hours. Aliquots of cells were removed hourly for determination of: (1) hydroperoxide generation measured by fluorescence of dichlorofluororescin diacetate (DCF-DA) that was preloaded into hepatocytes; (2) %LDH release as a measure of cell necrosis; and (3) DAPI fluorescence microscopy of fixed cells to quantify apoptosis. Liver histology was quantitated using a grading system.
# [4] = tested on: lean hepatocytes from lean (Fa/?) Zucker litter-mates; experiment: as above; type: cell-based, rat; conditions: lean cells, 100 μM GCDC × 3 hours
# Experimental: as §2
# [5] = tested on: fat-laden hepatocytes from obese Zucker (fa/fa) rats; experiment: Hydroperoxide generation (DCF-DA fluorescence) in isolated hepatocytes exposed to GCDC; type: cell-based, rat; conditions: fat-laden cells exposed to GCDC, compared with lean cells
# Experimental: as §2
# [6] = tested on: fat-laden hepatocytes from obese Zucker (fa/fa) rats; experiment: Apoptosis by DAPI fluorescence microscopy of isolated hepatocytes exposed to GCDC; type: cell-based, rat; conditions: fat-laden cells, 100 μM GCDC × 3 hours
# Experimental: as §2
# [7] = tested on: lean hepatocytes from lean (Fa/?) Zucker litter-mates; experiment: as above; type: cell-based, rat; conditions: lean cells, 100 μM GCDC × 3 hours
# Experimental: as §2
compound,measurement,setting,value
CC1=C(/C=C/C(C)=C/C=C/C(C)=C/C=C/C=C(C)/C=C/C=C(C)/C=C/C2=C(C)CCCC2(C)C)C(C)(C)CCC1 [beta carotene],mitochondrial swelling and injury induced by toxic bile acids,[1],protects the mitochondria from swelling and injury
same,production of free radicals,[1]; toxic bile acids,markedly diminishes the production of free radicals
same,mitochondrial swelling and injury induced by toxic bile acids,[2],protects the mitochondria from swelling and injury
same,production of free radicals,[2]; toxic bile acids,markedly diminishes the production of free radicals
Cc1c(C)c2c(c(C)c1O)CC[C@@](C)(CCC[C@H](C)CCC[C@H](C)CCCC(C)C)O2 [alpha tocopherol],oxidative stress and hepatocyte cell death,fat-laden hepatocytes,will prevent oxidative stress and hepatocyte cell death
same,serum AST and ALT,children with NASH,reduced
"CC(CCC(=O)NCC(=O)O)C1CCC2C3C(O)CC4CC(O)CCC4(C)C3CCC12C (centres unmarked) [GCDC, glycochenodeoxycholic acid]",necrosis (%LDH release),[3],54%
same,necrosis (%LDH release),[4],24%
same,generation of hydroperoxides,[5],trend was present towards increased generation of hydroperoxides
same,apoptosis,[6],8%
same,apoptosis,[7],31%

# — US6596762B2, “Antioxidant compositions and use for treatment of hepatic steatosis and steatohepatitis” (The Regents of The University of Colorado, priority 2001, dated 2003)
